Measured values published in paper PMC12090182, “Repurposing of the RIPK1-Selective Benzo[1,4]oxazepin-4-one Scaffold for the Development of a Type III LIMK1/2 Inhibitor” (ACS Chemical Biology, 2025).

Test system: U2OS cells
Assay type: cell-based
Conditions: human, 0 h, 1 µM
Procedure: To assess the influence on cell health, a high-content screening in living cells called the multiplex high-content assay, as described previously by Tjaden et al., was performed.[38] In brief, HEK293T (ATCC CRL-1573) and U2OS (ATCCHTB-96) were cultured in DMEM plus L-glutamine (high glucose) supplemented by 10% FBS (Gibco) and penicillin/streptomycin (Gibco). MRC-9 fibroblasts ([…]) were cultured in EMEM plus L-glutamine supplemented by 10% FBS (Gibco) and penicillin/streptomycin (Gibco). Cells were seeded at a density of 1250 cells per well in a 384-well plate in a culture medium (cell culture microplate, PS, f-bottom, μClear, 781091, Greiner), with a volume of 50 μL per well. All outer wells were filled with 100 μL of PBS buffer (Gibco). […] The cell shape and fluorescence were measured before treatment and 12, 24, and 48 h after compound treatment using the CQ1 high-content confocal microscope (Yokogawa, Musashino, Japan). […] The compounds were tested at 1 and 10 μM, respectively. Acquired images of the cells were processed using Yokogawa CellPathfinder software (v3.04.02.02). […] Results were normalized to cells exposed to 0.1% DMSO. All compounds were tested in biological duplicates, and SEM (standard error of mean) was calculated of biological duplicates.

CN1C(=O)[C@@H](N2CCc3c(C(N)=O)nn(Cc4ccccc4)c3C2=O)COc2ccccc21 [Compound 11]
Population apoptotic cell (%): 66.67%
